How the values were obtained:
Assay in all cases: HotSpot kinase screening over 45 different kinases, single dose 10 μM
Format in all cases: biochemical
Details in all cases: single dose concentration of 10 μM, 10 μM ATP
[1] = molecular target: T1, c-MET (Homo sapiens, UniProt P08581)
T1 construct: purchased Reaction Biology Corporation
Description: (§1) Kinase screening was performed using a “HotSpot” assay platform commercially available from Reaction Biology Corporation. For this kinase screening, reaction buffers were based on 20 mM Hepes (pH 7.5), 10 mM MgCl2, 1 mM EGTA, 0.02% Brij35, 0.02 mg/mL BSA, 0.1 mM Na3VO4, 2 mM DTT, and 1% DMSO, with supplementary factors necessary for respective kinase reactions added thereto. In each enzyme reaction, […] of each kinase was used together with a fresh reaction buffer and appropriate supplementary factors. A solution of each compound in DMSO was added in a suitable concentration to the reaction buffer. Kinase reaction started with the introduction of […] (specific activity […]) and continued for 2 hours at room temperature.
(§2) 1) Screening of Compounds Over 45 Different Kinases
(§3) Each compound was tested twice at a single dose concentration of 10 μM. […] The reaction was performed with 10 μM ATP.

[2] = system: RAF1
Description: as §1, §2, §3

[3] = molecular target: T2, IKKa/CHUK (Homo sapiens, UniProt O15111)
T2 construct: purchased Reaction Biology Corporation
Description: as §1, §2, §3

[4] = molecular target: T3, DNA-PK (Homo sapiens, UniProt P78527)
T3 construct: purchased Reaction Biology Corporation
Description: as §1, §2, §3

[5] = molecular target: T4, LCK (Homo sapiens, UniProt P06239)
T4 construct: purchased Reaction Biology Corporation
Description: as §1, §2, §3

[6] = molecular target: T5, PKCa (Homo sapiens, UniProt P17252)
T5 construct: purchased Reaction Biology Corporation
Description: as §1, §2, §3

[7] = molecular target: T6, RON/MST1R (Homo sapiens, UniProt Q04912)
T6 construct: purchased Reaction Biology Corporation
T6 sequence (Q04912 25-1400): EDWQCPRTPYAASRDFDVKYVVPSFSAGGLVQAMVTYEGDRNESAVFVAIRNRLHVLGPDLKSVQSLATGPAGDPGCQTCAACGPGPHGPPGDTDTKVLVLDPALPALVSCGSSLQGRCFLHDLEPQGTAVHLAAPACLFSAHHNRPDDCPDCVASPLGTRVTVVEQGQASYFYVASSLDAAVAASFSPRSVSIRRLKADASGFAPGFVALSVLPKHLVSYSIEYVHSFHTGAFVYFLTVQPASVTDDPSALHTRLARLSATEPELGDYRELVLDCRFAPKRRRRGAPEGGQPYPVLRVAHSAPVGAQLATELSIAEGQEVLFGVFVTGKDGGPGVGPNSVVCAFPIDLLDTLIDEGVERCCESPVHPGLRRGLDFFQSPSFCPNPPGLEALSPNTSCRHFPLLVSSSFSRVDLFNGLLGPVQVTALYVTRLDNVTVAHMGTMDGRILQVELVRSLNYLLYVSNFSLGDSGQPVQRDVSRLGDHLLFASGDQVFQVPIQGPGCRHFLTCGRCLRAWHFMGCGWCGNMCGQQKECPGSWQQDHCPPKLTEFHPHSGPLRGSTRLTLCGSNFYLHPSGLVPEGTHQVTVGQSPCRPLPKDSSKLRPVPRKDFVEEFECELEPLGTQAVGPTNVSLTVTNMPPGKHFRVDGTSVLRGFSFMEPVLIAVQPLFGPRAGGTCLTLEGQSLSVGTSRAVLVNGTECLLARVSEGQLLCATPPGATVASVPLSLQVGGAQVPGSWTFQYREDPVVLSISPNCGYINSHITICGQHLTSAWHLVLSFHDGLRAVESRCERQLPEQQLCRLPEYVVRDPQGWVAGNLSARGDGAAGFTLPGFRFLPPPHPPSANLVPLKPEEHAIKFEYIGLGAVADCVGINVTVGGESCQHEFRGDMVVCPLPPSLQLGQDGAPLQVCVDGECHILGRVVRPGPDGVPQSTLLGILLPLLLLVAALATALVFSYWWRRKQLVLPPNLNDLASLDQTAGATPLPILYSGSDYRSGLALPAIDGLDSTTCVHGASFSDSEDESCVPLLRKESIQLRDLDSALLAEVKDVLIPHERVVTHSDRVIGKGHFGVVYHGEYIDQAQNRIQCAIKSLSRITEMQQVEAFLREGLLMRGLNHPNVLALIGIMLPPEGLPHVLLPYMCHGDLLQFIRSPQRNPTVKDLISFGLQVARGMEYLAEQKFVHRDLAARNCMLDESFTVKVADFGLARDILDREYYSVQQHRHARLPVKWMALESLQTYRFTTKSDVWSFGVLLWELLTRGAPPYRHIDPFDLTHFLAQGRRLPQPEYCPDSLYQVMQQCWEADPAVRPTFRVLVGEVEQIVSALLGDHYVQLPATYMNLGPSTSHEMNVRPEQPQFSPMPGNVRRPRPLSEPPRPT
Description: as §1, §2, §3

[8] = molecular target: T7, PAK4 (Homo sapiens, UniProt O96013)
T7 construct: purchased Reaction Biology Corporation
Description: as §1, §2, §3

[9] = molecular target: T8, FGFR1 (Homo sapiens, UniProt P11362)
T8 construct: purchased Reaction Biology Corporation
Description: as §1, §2, §3

[10] = molecular target: T9, KDR/VEGFR2 (Homo sapiens, UniProt P35968)
T9 construct: purchased Reaction Biology Corporation
Description: as §1, §2, §3

[11] = molecular target: T10, EGFR (Homo sapiens, UniProt P00533)
T10 construct: purchased Reaction Biology Corporation
Description: as §1, §2, §3

[12] = molecular target: T11, RocK1 (Homo sapiens, UniProt Q13464)
T11 construct: purchased Reaction Biology Corporation
Description: as §1, §2, §3

[13] = molecular target: T12, JNK1a1 (Homo sapiens, UniProt P45983)
T12 construct: purchased Reaction Biology Corporation
T12 sequence (P45983 1-384 isoform P45983-2): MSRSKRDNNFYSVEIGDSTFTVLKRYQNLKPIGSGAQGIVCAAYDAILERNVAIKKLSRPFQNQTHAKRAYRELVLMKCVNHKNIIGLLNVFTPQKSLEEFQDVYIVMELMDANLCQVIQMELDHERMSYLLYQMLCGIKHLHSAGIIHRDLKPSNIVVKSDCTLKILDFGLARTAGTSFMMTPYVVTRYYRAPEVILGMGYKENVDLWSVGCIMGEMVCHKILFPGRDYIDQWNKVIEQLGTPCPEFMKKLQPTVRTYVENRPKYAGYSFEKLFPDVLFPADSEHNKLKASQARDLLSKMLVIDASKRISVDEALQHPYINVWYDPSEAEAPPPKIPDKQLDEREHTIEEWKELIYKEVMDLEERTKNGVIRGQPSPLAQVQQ
Description: as §1, §2, §3

[14] = molecular target: T13, LYN (Homo sapiens, UniProt P07948)
T13 construct: purchased Reaction Biology Corporation
T13 sequence (P07948 whole entry): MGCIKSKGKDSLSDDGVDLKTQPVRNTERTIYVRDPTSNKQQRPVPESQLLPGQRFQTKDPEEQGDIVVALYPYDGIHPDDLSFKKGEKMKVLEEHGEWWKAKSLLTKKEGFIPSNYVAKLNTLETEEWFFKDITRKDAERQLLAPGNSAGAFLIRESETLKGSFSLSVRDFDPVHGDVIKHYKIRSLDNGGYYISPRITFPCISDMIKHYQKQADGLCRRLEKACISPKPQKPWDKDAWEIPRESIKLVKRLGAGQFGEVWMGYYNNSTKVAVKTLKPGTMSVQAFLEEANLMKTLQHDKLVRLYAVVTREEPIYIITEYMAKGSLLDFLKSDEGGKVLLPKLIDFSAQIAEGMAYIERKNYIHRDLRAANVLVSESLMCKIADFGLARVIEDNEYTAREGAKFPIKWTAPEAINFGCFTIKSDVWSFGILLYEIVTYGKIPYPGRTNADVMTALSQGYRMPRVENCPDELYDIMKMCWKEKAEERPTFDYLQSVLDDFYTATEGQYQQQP
Description: as §1, §2, §3

[15] = molecular target: T14, IR (Homo sapiens, UniProt P06213)
T14 construct: purchased Reaction Biology Corporation
Description: as §1, §2, §3

[16] = molecular target: T15, DAPK1 (Homo sapiens, UniProt P53355)
T15 construct: purchased Reaction Biology Corporation
T15 sequence (P53355 whole entry): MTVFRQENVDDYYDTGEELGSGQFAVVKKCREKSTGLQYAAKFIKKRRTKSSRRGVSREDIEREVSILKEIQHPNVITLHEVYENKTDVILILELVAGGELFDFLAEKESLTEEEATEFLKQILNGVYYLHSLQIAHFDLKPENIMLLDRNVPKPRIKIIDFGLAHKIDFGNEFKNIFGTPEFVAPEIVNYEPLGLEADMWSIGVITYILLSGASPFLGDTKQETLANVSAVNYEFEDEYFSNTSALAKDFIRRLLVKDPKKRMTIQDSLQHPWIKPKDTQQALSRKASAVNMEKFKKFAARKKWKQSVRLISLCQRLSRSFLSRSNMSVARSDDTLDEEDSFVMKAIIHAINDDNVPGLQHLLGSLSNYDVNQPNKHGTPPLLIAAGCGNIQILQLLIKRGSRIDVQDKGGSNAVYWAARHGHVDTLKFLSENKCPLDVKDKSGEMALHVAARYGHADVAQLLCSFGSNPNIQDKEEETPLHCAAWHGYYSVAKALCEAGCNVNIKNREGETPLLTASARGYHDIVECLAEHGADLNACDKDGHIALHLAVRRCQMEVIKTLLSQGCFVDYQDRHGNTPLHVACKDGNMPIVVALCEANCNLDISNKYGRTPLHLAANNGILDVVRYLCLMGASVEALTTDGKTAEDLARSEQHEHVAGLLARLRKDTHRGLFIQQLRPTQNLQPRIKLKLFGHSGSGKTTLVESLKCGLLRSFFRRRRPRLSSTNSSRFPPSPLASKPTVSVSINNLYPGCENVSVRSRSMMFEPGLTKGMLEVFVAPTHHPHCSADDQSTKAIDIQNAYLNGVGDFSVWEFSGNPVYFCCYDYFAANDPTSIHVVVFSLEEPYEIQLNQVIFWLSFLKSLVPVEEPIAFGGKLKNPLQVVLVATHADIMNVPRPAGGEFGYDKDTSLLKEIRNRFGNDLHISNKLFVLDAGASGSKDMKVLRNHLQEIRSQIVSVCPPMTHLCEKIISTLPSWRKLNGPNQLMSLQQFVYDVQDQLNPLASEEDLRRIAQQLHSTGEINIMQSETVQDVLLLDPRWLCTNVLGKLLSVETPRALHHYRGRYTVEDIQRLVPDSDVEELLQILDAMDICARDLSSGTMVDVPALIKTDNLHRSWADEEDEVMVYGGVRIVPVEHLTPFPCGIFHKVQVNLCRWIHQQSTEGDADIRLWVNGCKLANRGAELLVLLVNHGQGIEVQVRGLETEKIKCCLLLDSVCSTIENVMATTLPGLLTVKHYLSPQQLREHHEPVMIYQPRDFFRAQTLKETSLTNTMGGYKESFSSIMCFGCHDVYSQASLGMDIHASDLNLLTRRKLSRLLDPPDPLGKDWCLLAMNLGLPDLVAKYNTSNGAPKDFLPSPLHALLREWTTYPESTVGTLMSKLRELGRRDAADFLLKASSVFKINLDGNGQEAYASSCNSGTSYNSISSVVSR
Description: as §1, §2, §3

[17] = molecular target: T16, FAK/PTK2 (Homo sapiens, UniProt Q05397)
T16 construct: purchased Reaction Biology Corporation
T16 sequence (Q05397 whole entry): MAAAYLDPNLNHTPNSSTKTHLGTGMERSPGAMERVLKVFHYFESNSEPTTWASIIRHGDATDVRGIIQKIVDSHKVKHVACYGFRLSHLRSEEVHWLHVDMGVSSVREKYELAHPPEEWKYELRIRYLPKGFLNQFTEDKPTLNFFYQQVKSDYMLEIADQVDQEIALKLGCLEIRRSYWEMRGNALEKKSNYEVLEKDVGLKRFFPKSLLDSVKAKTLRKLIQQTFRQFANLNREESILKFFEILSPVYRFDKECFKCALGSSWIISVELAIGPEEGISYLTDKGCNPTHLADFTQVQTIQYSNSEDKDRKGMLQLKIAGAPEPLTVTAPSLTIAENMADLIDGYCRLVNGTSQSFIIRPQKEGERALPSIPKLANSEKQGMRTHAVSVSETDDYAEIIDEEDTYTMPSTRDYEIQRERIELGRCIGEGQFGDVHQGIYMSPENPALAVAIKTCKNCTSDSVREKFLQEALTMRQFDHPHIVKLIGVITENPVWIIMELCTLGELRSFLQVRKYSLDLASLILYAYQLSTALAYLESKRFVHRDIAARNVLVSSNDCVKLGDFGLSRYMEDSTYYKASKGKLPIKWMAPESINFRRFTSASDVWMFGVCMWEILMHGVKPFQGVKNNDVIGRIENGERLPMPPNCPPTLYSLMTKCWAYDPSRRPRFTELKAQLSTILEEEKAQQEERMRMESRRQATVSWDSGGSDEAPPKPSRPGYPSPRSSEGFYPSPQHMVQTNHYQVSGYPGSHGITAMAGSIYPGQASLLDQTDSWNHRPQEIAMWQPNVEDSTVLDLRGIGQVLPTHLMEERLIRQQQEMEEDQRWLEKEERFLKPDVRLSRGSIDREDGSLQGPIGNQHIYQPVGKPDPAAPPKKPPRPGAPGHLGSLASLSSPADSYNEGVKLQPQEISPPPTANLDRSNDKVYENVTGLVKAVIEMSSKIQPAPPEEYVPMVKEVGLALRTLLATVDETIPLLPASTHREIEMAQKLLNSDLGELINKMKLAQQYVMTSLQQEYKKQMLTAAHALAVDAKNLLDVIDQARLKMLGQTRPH
Description: as §1, §2, §3

[18] = molecular target: T17, ABL1 (Homo sapiens, UniProt P00519)
T17 construct: purchased Reaction Biology Corporation
Description: as §1, §2, §3

[19] = molecular target: T18, MST4 (Homo sapiens, UniProt Q9P289)
T18 construct: purchased Reaction Biology Corporation
Description: as §1, §2, §3

[20] = molecular target: T19, EPHA1 (Homo sapiens, UniProt P21709)
T19 construct: purchased Reaction Biology Corporation
Description: as §1, §2, §3

[21] = molecular target: T20, FLT1 (Homo sapiens, UniProt P17948)
T20 construct: purchased Reaction Biology Corporation
Description: as §1, §2, §3

[22] = molecular target: T21, c-Src (Homo sapiens, UniProt P12931)
T21 construct: purchased Reaction Biology Corporation
Description: as §1, §2, §3

[23] = molecular target: T22, TRKA/NTRK1 (Homo sapiens, UniProt P04629)
T22 construct: purchased Reaction Biology Corporation
Description: as §1, §2, §3

[24] = compared to enzyme activity in DMSO control

inhibition at 10 µM [1]: 5.82% | activity at 10 µM [1, 24]: 94.2% | Inhibition (%) [2]: 20.39% | Activity (%) [2, 24]: 79.61% | inhibition at 10 µM [3]: 1.37% | activity at 10 µM [3, 24]: 98.6% | inhibition at 10 µM [4]: 6.56% | activity at 10 µM [4, 24]: 93.4% | inhibition at 10 µM [5]: 10.3% | activity at 10 µM [5, 24]: 89.7% | inhibition at 10 µM [6]: 9.23% | activity at 10 µM [6, 24]: 90.8% | inhibition at 10 µM [7]: 28.8% | activity at 10 µM [7, 24]: 71.1% | inhibition at 10 µM [8]: 1.37% | activity at 10 µM [8, 24]: 98.6% | inhibition at 10 µM [9]: -8.05% | activity at 10 µM [9, 24]: 108% | inhibition at 10 µM [10]: -5.84% | activity at 10 µM [10, 24]: 106% | inhibition at 10 µM [11]: -2.23% | activity at 10 µM [11, 24]: 102% | inhibition at 10 µM [12]: 11.7% | activity at 10 µM [12, 24]: 88.3% | inhibition at 10 µM [13]: 3.83% | activity at 10 µM [13, 24]: 96.2% | inhibition at 10 µM [14]: -1.45% | activity at 10 µM [14, 24]: 101% | inhibition at 10 µM [15]: 7.01% | activity at 10 µM [15, 24]: 93% | inhibition at 10 µM [16]: -1.17% | activity at 10 µM [16, 24]: 101% | inhibition at 10 µM [17]: 3.43% | activity at 10 µM [17, 24]: 96.6% | inhibition at 10 µM [18]: 20.4% | activity at 10 µM [18, 24]: 79.6% | inhibition at 10 µM [19]: -1.54% | activity at 10 µM [19, 24]: 102% | inhibition at 10 µM [20]: 23.3% | activity at 10 µM [20, 24]: 76.7% | inhibition at 10 µM [21]: -1.67% | activity at 10 µM [21, 24]: 102% | inhibition at 10 µM [22]: 16.2% | activity at 10 µM [22, 24]: 83.8% | inhibition at 10 µM [23]: -0.14% | activity at 10 µM [23, 24]: 100%
Structure (SMILES): Cc1cc(O)cc(-c2nn(CC#N)cc2-c2cc(NC[C@H](C)O)nc(-c3cccnc3)n2)c1 [Example 10, [4-[6-(2(S)-hydroxypropylamino)-2-pyridin-3-yl-pyrimidin-4-yl]-3-(3-hydroxy-5-methylphenyl)-pyrazol-1-yl]acetonitrile]

Reference: patent US8273880B2, “Pyrazole compounds with inhibitory activity against ROS kinase” (Korea Institute of Science and Technology, priority 2009, dated 2012)
